Data reported in US6716851B2, “Substituted 2-aryl-4-arylaminopyrimidines and analogs as activators or caspases and inducers of apoptosis and the use thereof” (Cytovia, Inc., priority 2000, dated 2004).

Key:
ZR-75-1 cells = assay: Caspase cascade activation (N-(Ac-DEVD)-N'-ethoxycarbonyl-R110 fluorogenic substrate) in ZR-75-1 cells; assay type: cell-based, Human; conditions: ZR-75-1, 48 h incubation; for EC50: Homo sapiens, caspase activation potency; for ZR Ratio 48 hr: caspase activity: ratio of net RFU of test compound to control
Method: (§1) Human breast cancer cell lines T-47D and ZR-75-1 were grown according to media component mixtures designated by American Type Culture Collection +10% FCS (Invitrogen Corporation, Life Technologies division), in a 5% CO2-95% humidity incubator at 37° C. T-47D and ZR-75-1 cells were maintained at a cell density between 50 and 80% confluency at a cell density of 0.1 to 0.6×10^6 cells/ml. Cells were harvested at 600× g and resuspended at 0.65×10^6 cells/ml into appropriate media +10% FCS. An aliquot of […] of cells was added to a well of a […] microtiter plate containing 2.5 μl of a 10% DMSO in RPMI-1640 media solution containing 0.16 to 100 μM of 4-(3-methoxyanilino)-2-(2-pyridinyl)-6-(trifluoromethyl)pyrimidine or other test compound (0.016 to 10 μM final). An aliquot of 22.5 μl of cells was added to a well of a 384-well microtiter plate containing 2.5 μl of a 10% DMSO in RPMI-1640 media solution without test compound as the control sample. The samples were mixed by agitation and then incubated at 37° C. for 48 h in a 5% CO2-95% humidity incubator. After incubation, the samples were removed from the incubator and 25 μl of a solution containing 14 μM of N-(Ac-DEVD)-N′-ethoxycarbonyl-R110 fluorogenic substrate (Cytovia, Inc.; WO99/18856), 20% sucrose (Sigma), 20 mM DTT (Sigma), 200 mM NaCl (Sigma), 40 mM Na PIPES buffer pH 7.2 (Sigma), and 500 μg/ml lysolecithin (Calbiochem) was added. The samples were mixed by agitation and incubated at room temperature. Using a fluorescent plate reader (Model SpectraMax Gemini, Molecular Devices), an initial reading (T=0) was made approximately 1-2 min after addition of the substrate solution, employing excitation at 485 nm and emission at 530 nm, to determine the background fluorescence of the control sample. After the 3 h incubation, the samples were read for fluorescence as above (T=3 h).
(§2) The Relative Fluorescence Unit values (RFU) were used to calculate the sample readings as follows:
(§3) RFU(T=3h)−Control RFU(T=0)=Net RFU(T=3h)
(§4) The activity of caspase cascade activation was determined by the ratio of the net RFU value for 4-(3-methoxyanilino)-2-(2-pyridinyl)-6-(trifluoromethyl)pyrimidine or other test compound to that of control samples. The EC50 (nM) was determined by a sigmoidal dose-response calculation (Prism 2.0, GraphPad Software Inc.).

T-47D cells = assay: Caspase cascade activation (N-(Ac-DEVD)-N'-ethoxycarbonyl-R110 fluorogenic substrate) in T-47D cells; assay type: cell-based, Human; conditions: 48 h incubation; for EC50: Homo sapiens, T47D, caspase activation potency, read-out: T47 EC50; for T47 Ratio 48 hr: caspase activity: ratio of net RFU of test compound to control
Method: as §1, §2, §3, §4

Cc1nccc(-c2cccc(Nc3cc(C(F)(F)F)nc(-c4cccnc4)n3)c2)n1 [Example 59, 4-[3-(2-Methyl-pyrimidin-4-yl)anilino]-2-(3-pyridinyl)-6-(trifluoromethyl)pyrimidine] was tested, and the EC50 (ZR-75-1 cells) was over 5000 nM, the “ZR Ratio 48 hr” value (ZR-75-1 cells) was 1.1 and the EC50 (T-47D cells) was over 5000 nM. The “T47 Ratio 48 hr” value (T-47D cells) was 1.6.

With FC(F)(F)c1cc(Nc2cccc(-c3ccccc3)c2)nc(-c2cccnc2)n1 [Example 60, 4-(3-Phenylanilino)-2-(3-pyridinyl)-6-(trifluoromethyl)pyrimidine] the EC50 (ZR-75-1 cells) was over 5000 nM, the “ZR Ratio 48 hr” value (ZR-75-1 cells) was 1.4 and the EC50 (T-47D cells) was over 5000 nM. The “T47 Ratio 48 hr” value (T-47D cells) was 1.8.

With O=[N+]([O-])c1cccc(-c2cccc(Nc3cc(C(F)(F)F)nc(-c4cccnc4)n3)c2)c1 [Example 61, 4-[3-(3-Nitrophenyl)anilino]-2-(3-pyridinyl)-6-(trifluoromethyl)pyrimidine] the EC50 (ZR-75-1 cells) was over 5000 nM, the “ZR Ratio 48 hr” value (ZR-75-1 cells) was 1.2 and the EC50 (T-47D cells) was over 5000 nM. The “T47 Ratio 48 hr” value (T-47D cells) was 1.8.

For Fc1c(F)c(F)c(Oc2cccc(Nc3cc(C(F)(F)F)nc(-c4cccnc4)n3)c2)c(F)c1F [Example 62, 4-[3-(2,3,4,5,6-Pentafluorophenoxy)anilino]-2-(3-pyridinyl)-6-(trifluoromethyl)pyrimidine], the EC50 (ZR-75-1 cells) was over 5000 nM, the “ZR Ratio 48 hr” value (ZR-75-1 cells) was 1.3 and the EC50 (T-47D cells) was over 5000 nM. For the same molecule, the “T47 Ratio 48 hr” value (T-47D cells) was 1.6.

COc1ccc(OC)c(Nc2cc(C(F)(F)F)nc(-c3ccccn3)n2)c1 [Example 63, 4-(2,5-Dimethoxyanilino)-2-(2-pyridinyl)-6-(trifluoromethyl)pyrimidine] was tested, and the EC50 (ZR-75-1 cells) was 43 nM, the “ZR Ratio 48 hr” value (ZR-75-1 cells) was 9.6 and the EC50 (T-47D cells) was 18 nM. The “T47 Ratio 48 hr” value (T-47D cells) was 8.9.

For O=S(=O)(c1ccccc1)c1cccc(Nc2cc(C(F)(F)F)nc(-c3cccnc3)n2)c1 [Example 65, 4-[3-(Phenylsulfone)anilino]-2-(3-pyridinyl)-6-(trifluoromethyl)pyrimidine], the EC50 (ZR-75-1 cells) was over 5000 nM, the “ZR Ratio 48 hr” value (ZR-75-1 cells) was 1.7 and the EC50 (T-47D cells) was over 5000 nM. The “T47 Ratio 48 hr” value (T-47D cells) was 1.7.

In the case of O=C(Nc1ccccc1)c1cccc(Nc2cc(C(F)(F)F)nc(-c3cccnc3)n2)c1 [Example 66, 4-[3-(N-phenylamide)anilino]-2-(3-pyridinyl)-6-(trifluoromethyl)pyrimidine], the EC50 (ZR-75-1 cells) is reported as over 5000 nM, the “ZR Ratio 48 hr” value (ZR-75-1 cells) is reported as 0.9 and the EC50 (T-47D cells) is reported as over 5000 nM. For the same molecule, the “T47 Ratio 48 hr” value (T-47D cells) was 1.2.

With FC(F)(F)c1cc(Nc2cccc(Oc3ccccc3)c2)nc(-c2cccnc2)n1 [Example 67, 4-(3-Phenoxyanilino)-2-(3-pyridinyl)-6-(trifluoromethyl)pyrimidine] the EC50 (ZR-75-1 cells) was over 5000 nM, the “ZR Ratio 48 hr” value (ZR-75-1 cells) was 1.2 and the EC50 (T-47D cells) was over 5000 nM. The “T47 Ratio 48 hr” value (T-47D cells) was 1.5.

For Cc1ccc(C)c(Nc2cc(C(F)(F)F)nc(-c3cccnc3)n2)c1 [Example 68, 4-(2,5-Dimethylanilino)-2-(3-pyridinyl)-6-(trifluoromethyl)pyrimidine], the EC50 (ZR-75-1 cells) was 130 nM, the “ZR Ratio 48 hr” value (ZR-75-1 cells) was 17.9 and the EC50 (T-47D cells) was 247 nM. The “T47 Ratio 48 hr” value (T-47D cells) was 20.9.

With Cl.Oc1cccc(Nc2cc(C(F)(F)F)nc(-c3ccccn3)n2)c1 [Example 69, 4-(3-Hydroxyanilino)-2-(2-pyridinyl)-6-(trifluoromethyl)pyrimidine hydrochloride] the EC50 (ZR-75-1 cells) was 127 nM, the “ZR Ratio 48 hr” value (ZR-75-1 cells) was 10.9 and the EC50 (T-47D cells) was 382 nM. The “T47 Ratio 48 hr” value (T-47D cells) was 14.2.

In the case of COc1cccc(Nc2cc(C(F)(F)F)nc(-c3ccccc3)n2)c1 [Example 73, 4-(3-Methoxyanilino)-2-phenyl-6-(trifluoromethyl)pyrimidine], the EC50 (ZR-75-1 cells) is reported as 10000 nM, the “ZR Ratio 48 hr” value (ZR-75-1 cells) is reported as 2.6 and the EC50 (T-47D cells) is reported as over 5000 nM. The “T47 Ratio 48 hr” value (T-47D cells) was 1.6.

In the case of COc1cccc(Nc2cc(C(F)(F)F)nc(-c3cnccn3)n2)c1 [Example 74, 4-(3-Methoxyanilino)-2-(2-pyrazinyl)-6-(trifluoromethyl)pyrimidine], the EC50 (ZR-75-1 cells) is reported as 326 nM, the “ZR Ratio 48 hr” value (ZR-75-1 cells) is reported as 13.1 and the EC50 (T-47D cells) is reported as 364 nM. The “T47 Ratio 48 hr” value (T-47D cells) was 16.4.

In the case of COc1ccc(OC)c(Nc2cc(C(F)(F)F)nc(-c3ccccc3)n2)c1 [Example 75, 4-(2,5-Dimethoxyanilino)-2-phenyl-6-(trifluoromethyl)pyrimidine], the EC50 (ZR-75-1 cells) is reported as 3280 nM, the “ZR Ratio 48 hr” value (ZR-75-1 cells) is reported as 7.8 and the EC50 (T-47D cells) is reported as 2290 nM. For the same molecule, the “T47 Ratio 48 hr” value (T-47D cells) was 16.3.

COc1ccc(C)c(Nc2cc(C(F)(F)F)nc(-c3cnccn3)n2)c1 [Example 80, 4-(5-Methoxy-2-methylanilino)-2-(2-pyrazinyl)-6-(trifluoromethyl)pyrimidine] was tested, and the EC50 (ZR-75-1 cells) was 243 nM, the “ZR Ratio 48 hr” value (ZR-75-1 cells) was 5.9 and the EC50 (T-47D cells) was 64 nM. The “T47 Ratio 48 hr” value (T-47D cells) was 8.5.

With COc1ccc(Cl)c(Nc2cc(C(F)(F)F)nc(-c3ccccc3)n2)c1 [Example 81, 4-(2-Chloro-5-methoxyanilino)-2-phenyl-6-(trifluoromethyl)pyrimidine] the EC50 (ZR-75-1 cells) was 5500 nM, the “ZR Ratio 48 hr” value (ZR-75-1 cells) was 5.0 and the EC50 (T-47D cells) was 5050 nM. For the same molecule, the “T47 Ratio 48 hr” value (T-47D cells) was 12.7.

For COc1ccc(Oc2ccccc2)cc1Nc1cc(C(F)(F)F)nc(-c2cccnc2)n1 [Example 85, 4-(2-Methoxy-5-phenoxyanilino)-2-(3-pyridinyl)-6-(trifluoromethyl)pyrimidine], the EC50 (ZR-75-1 cells) was 2830 nM, the “ZR Ratio 48 hr” value (ZR-75-1 cells) was 6.7 and the EC50 (T-47D cells) was over 5000 nM. The “T47 Ratio 48 hr” value (T-47D cells) was 1.7.

COc1ccc(C)cc1Nc1cc(C(F)(F)F)nc(-c2cccnc2)n1 [Example 87, 4-(2-Methoxy-5-methylanilino)-2-(3-pyridinyl)-6-(trifluoromethyl)pyrimidine] was tested, and the EC50 (ZR-75-1 cells) was under 75 nM, the “ZR Ratio 48 hr” value (ZR-75-1 cells) was 16.9 and the EC50 (T-47D cells) was under 75 nM. The “T47 Ratio 48 hr” value (T-47D cells) was 19.2.

In the case of Cc1ccc(F)cc1Nc1cc(C(F)(F)F)nc(-c2cccnc2)n1 [Example 88, 4-(5-Fluoro-2-methylanilino)-2-(3-pyridinyl)-6-(trifluoromethyl)pyrimidine], the EC50 (ZR-75-1 cells) is reported as 1220 nM, the “ZR Ratio 48 hr” value (ZR-75-1 cells) is reported as 8.0 and the EC50 (T-47D cells) is reported as 2320 nM. For the same molecule, the “T47 Ratio 48 hr” value (T-47D cells) was 9.8.

COc1ccc(C(F)(F)F)cc1Nc1cc(C(F)(F)F)nc(-c2cccnc2)n1 [Example 89, 4-(2-Methoxy-5-trifluoromethylanilino)-2-(3-pyridinyl)-6-(trifluoromethyl)pyrimidine] was tested, and the EC50 (ZR-75-1 cells) was 1600 nM, the “ZR Ratio 48 hr” value (ZR-75-1 cells) was 9.8 and the EC50 (T-47D cells) was 2740 nM. The “T47 Ratio 48 hr” value (T-47D cells) was 8.7.

With Cc1ccc(N)cc1Nc1cc(C(F)(F)F)nc(-c2cccnc2)n1.Cl [Example 91, 4-(5-Amino-2-methylanilino)-2-(3-pyridinyl)-6-(trifluoromethyl)pyrimidine hydrochloride] the EC50 (ZR-75-1 cells) was 788 nM, the “ZR Ratio 48 hr” value (ZR-75-1 cells) was 8.8 and the EC50 (T-47D cells) was 1440 nM. For the same molecule, the “T47 Ratio 48 hr” value (T-47D cells) was 11.7.

For CCOc1cccc(Nc2cc(C(F)(F)F)nc(-c3ccccn3)n2)c1 [Example 92, 4-(3-Ethoxyanilino)-2-(2-pyridinyl)-6-(trifluoromethyl)pyrimidine], the EC50 (ZR-75-1 cells) was 285 nM, the “ZR Ratio 48 hr” value (ZR-75-1 cells) was 12.4 and the EC50 (T-47D cells) was 363 nM. For the same molecule, the “T47 Ratio 48 hr” value (T-47D cells) was 16.8.

In the case of CCc1cccc(Nc2cc(C(F)(F)F)nc(-c3ccccn3)n2)c1 [Example 93, 4-(3-Ethylanilino)-2-(2-pyridinyl)-6-(trifluoromethyl)pyrimidine], the EC50 (ZR-75-1 cells) is reported as 2030 nM, the “ZR Ratio 48 hr” value (ZR-75-1 cells) is reported as 8.2 and the EC50 (T-47D cells) is reported as over 5000 nM. The “T47 Ratio 48 hr” value (T-47D cells) was 2.0.

With COc1ccc(Cl)c(Nc2cc(C(F)(F)F)nc(-c3ccccn3)n2)c1 [Example 95, 4-(2-Chloro-5-methoxyanilino)-2-(2-pyridinyl)-6-(trifluoromethyl)pyrimidine] the EC50 (ZR-75-1 cells) was 148 nM, the “ZR Ratio 48 hr” value (ZR-75-1 cells) was 8.6 and the EC50 (T-47D cells) was 113 nM. The “T47 Ratio 48 hr” value (T-47D cells) was 11.6.

In the case of CSc1cccc(Nc2cc(C(F)(F)F)nc(-c3ccccn3)n2)c1 [Example 96, 4-(3-Methylmercaptoanilino)-2-(2-pyridinyl)-6-(trifluoromethyl)pyrimidine], the EC50 (ZR-75-1 cells) is reported as 2760 nM, the “ZR Ratio 48 hr” value (ZR-75-1 cells) is reported as 4.9 and the EC50 (T-47D cells) is reported as over 5000 nM. For the same molecule, the “T47 Ratio 48 hr” value (T-47D cells) was 1.4.

For Cl.Oc1cccc(Nc2cc(C(F)(F)F)nc(-c3cccnc3)n2)c1 [Example 97, 4-(3-Hydroxyanilino)-2-(3-pyridinyl)-6-(trifluoromethyl)pyrimidine hydrochloride], the EC50 (ZR-75-1 cells) was 717 nM, the “ZR Ratio 48 hr” value (ZR-75-1 cells) was 6.7 and the EC50 (T-47D cells) was 659 nM. For the same molecule, the “T47 Ratio 48 hr” value (T-47D cells) was 14.5.

In the case of CCOc1ccc(OCC)c(Nc2cc(C(F)(F)F)nc(-c3cccnc3)n2)c1 [Example 102, 4-(2,5-Diethoxyanilino)-2-(3-pyridinyl)-6-(trifluoromethyl)pyrimidine], the EC50 (ZR-75-1 cells) is reported as 701 nM, the “ZR Ratio 48 hr” value (ZR-75-1 cells) is reported as 7.4 and the EC50 (T-47D cells) is reported as 512 nM. For the same molecule, the “T47 Ratio 48 hr” value (T-47D cells) was 8.0.
